The values below come from patent US8629277B2, “Styrenyl 1,2,4-oxadiazole compounds” (Piramal Enterprises Limited, priority 2010, dated 2014).

SMILES strings stand for the structures. pIC50: −log10 of the molar value. Where a name gives a salt, the structure may show the parent alone. Read-outs that look alike come from different tables or passages of the source. Some results are limits rather than exact numbers.

Assay [1] deals with Ba/F3 Bcr-Abl/T315I (Homo sapiens, UniProt P00519, T315I, cells depend on it). Conditions: read-out: Inhibitory concentrations (IC50) Ba/F3 Bcr-Abl/T315I; imatinib resistant cell line; CCK-8, 72 h. From the text:
(§1) Cell Proliferation and Cytotoxicity CCK-8 Assay:
(§2) Cell Counting Kit-8 (CCK-8) assay is a sensitive colorimetric assay for the determination of number of viable cells in cell proliferation and cytotoxicity assays. Cell Counting Kit-8 (CCK-8) utilizes Dojindo's highly water-soluble tetrazolium salt. The amount of the formazan dye generated by dehydrogenases in cells is directly proportional to the number of living cells.
(§3) The cell lines described in Table 1 were used to test the antiproliferative activity of the compounds of the present invention.
(§4) Cells were seeded at a density of ˜5×10^3 per well (0.09 mL) in a transparent 96-well tissue culture plate (NUNC, USA) and allowed to incubate at 37° C., 5% CO2 incubator for 2-6 h. Different concentrations of compounds of the present invention were added to the wells of the culture plate in triplicate. […] Plates were further incubated in an incubator at 37° C. in presence of 5% CO2 for 72 h. 10 μL of the CCK-8 solution was added to each well and plate was incubated for 1-4 h in the incubator. The absorbance was measured at 450 nm using a microplate reader. The percent inhibition and IC50 were calculated in comparison with control values.

The subject of assay [2] is K562. The experiment in a line: Cell proliferation and cytotoxicity CCK-8 assay. The assay is classed as cell-based, human. The settings on record: imatinib sensitive cell line K562, CCK-8, 72 h, read-out: Inhibitory concentrations (IC50) K562.
Assay [3] deals with T1, Ba/F3 Bcr-Abl/WT (Homo sapiens, UniProt P00519).
T1 construct: fused on or other part: P11274 (Breakpoint cluster region protein)
The experiment in a line: Cell proliferation and cytotoxicity CCK-8 assay. The settings on record: imatinib sensitive cell line; CCK-8, 72 h; read-out: Inhibitory concentrations (IC50) Ba/F3 Bcr-Abl/WT. It counts as cell-based.
From the text: as §1, §2, §3, §4
(Formazan colour is commonly taken as a measure of viable cells.)

The subject of assay [4] is Ba/F3. The experiment in a line: Flow cytometric analysis of apoptosis (PI staining). The assay is classed as cell-based. The method, then:
(§5) Effect of the Compounds of Present Invention in Bcr-Abl Mutated Imatinib Mesylate-Resistant Cell Lines on Cell Cycle and Apoptosis Using Flow Cytometry.
(§6) The assay was carried out as in reference, FEBS Letters, 2007, 581, 7, 1329-1334. […] At the end of incubation, cells were harvested by centrifugation at 1000 rpm for 10 minutes, washed with phosphate buffered saline (PBS) and gradually resuspended in 70% ice-cold ethanol (to facilitate the permeablisation of stains). Cell suspension was stored for a minimum period of 4 h before staining with propidium iodide (PI). Fixed cells were stained with PI (80 μg/mL) in presence of RNase A (50 μg/mL), and read on Becton Dickinson FACS Calibur (USA) for cell cycle analysis.
In general terms: In flow cytometry, cells or beads pass a laser one at a time.

Assay [5] relates to E255V. The description is as above. The assay is classed as cell-based. On the procedure:
as §5, §6

Assay [6] deals with Y253. Described as above. The assay is classed as cell-based. On the procedure:
as §5, §6

In assay [7] the test system is T315I. The description is as above. The assay is classed as cell-based. On the procedure: as §5, §6
Assay [8] concerns K562. The description is as above. It counts as cell-based, human. The method, then:
as §5, §6

On to `Cc1noc(C=Cc2ccc(O)c(O)c2)n1` [Compound of Example 1, 4-[2-(3-Methyl-[1,2,4]oxadiazol-5-yl)-vinyl]-benzene-1,2-diol], for which the GI50 in assay [1] and in assay [3] was 11 to 100 µM throughout. Further, in assay [2] (Homo sapiens), the pIC50 is 4.00 to 4.96.
Consider `CCc1noc(C=Cc2ccc(O)c(O)c2)n1` [Compound of Example 2, 4-[2-(3-Ethyl-[1,2,4]oxadiazol-5-yl)-vinyl]-benzene-1,2-diol], for which the GI50 in assay [1] and in assay [3] was under 10 µM each time. For the same compound, in assay [2] (Homo sapiens), the pIC50 is over 5.00.
As to `CCCc1noc(C=Cc2ccc(O)c(NS(C)(=O)=O)c2)n1` [Compound of Example 10, N-{2-Hydroxy-5-[2-(3-propyl-[1,2,4]oxadiazol-5-yl)-vinyl]-phenyl}-methanesulfonamide], the GI50 in assay [1] and in assay [3] was 11 to 100 µM in each case. Moreover, the pIC50 in assay [2] (Homo sapiens) was under 4.00.
With `CCCc1nc(C=Cc2ccc(O)c(N)c2)no1` [Compound of Example 12, 2-Amino-4-[2-(5-propyl-[1,2,4]oxadiazol-3-yl)-vinyl]-phenol], the GI50 in assay [1] was under 10 µM; in assay [3], 11 to 100 µM. For the same compound, the pIC50 in assay [2] (Homo sapiens) was 4.00 to 4.96.
Turning to `CN1CCC(c2noc(C=Cc3ccc(O)c(O)c3)n2)CC1` [Compound of Example 20, 4-[2-(3-Piperidin-4,1-methyl-[1,2,4]oxadiazol-5-yl)-vinyl]-benzene-1,2-diol], the GI50 in assay [1] and in assay [3] was 11 to 100 µM throughout. In assay [2], the pIC50 was 4.00 to 4.96.
For the compound `CC(C)N1CCC(Cc2noc(C=Cc3ccc(O)c(O)c3)n2)CC1` [Compound of Example 22, 4-{2-[3-(1-Isopropyl-piperidin-4-ylmethyl)-[1,2,4]oxadiazol-5-yl]-vinyl}-benzene-1,2-diol], the GI50 in assay [1] and in assay [3] was 11 to 100 µM throughout. In addition, the pIC50 in assay [2] (Homo sapiens) is 4.00 to 4.96.
Take `CN(C)CCN1CCC(Cc2noc(C=Cc3ccc(O)c(O)c3)n2)CC1` [Compound of Example 24, 4-(2-{3-[1-(2-Dimethylamino-ethyl)-piperidin-4-ylmethyl]-[1,2,4]oxadiazol-5-yl}-vinyl)-benzene-1,2-diol]: the GI50 in assay [1] and in assay [3] was 11 to 100 µM each time. In addition, the pIC50 in assay [2] (Homo sapiens) is 4.00 to 4.96.
As to `Oc1ccc(C=Cc2nc(CC3CCN(Cc4ccccc4)CC3)no2)cc1O` [Compound of Example 31, 4-{2-[3-(1-Benzyl-piperidin-4-ylmethyl)-[1,2,4]oxadiazol-5-yl]-vinyl}-benzene-1,2-diol], the GI50 in assay [1] and in assay [3] was 11 to 100 µM each time. The pIC50 in assay [2] (Homo sapiens) was 4.00 to 4.96.
On to `CCCCCCCCCc1noc(C=Cc2ccc(O)c(O)c2)n1` [Compound of Example 34, 4-[2-(3-Nonyl-[1,2,4]oxadiazol-5-yl)-vinyl]-benzene-1,2-diol], for which the GI50 in assay [1] and in assay [3] was under 10 µM each time. In addition, the pIC50 in assay [2] (Homo sapiens) was 4.00 to 4.96.
Consider `Oc1ccc(C=Cc2nc(C3CC3)no2)cc1O` [Compound of Example 37, 4-[2-(3-Cyclopropyl-[1,2,4]oxadiazol-5-yl)-vinyl]-benzene-1,2-diol], for which the GI50 in assay [1] and in assay [3] was under 10 µM in each case. Besides, in assay [2] (Homo sapiens), the pIC50 is over 5.00.
Take `CCCCCc1noc(C=Cc2ccc(O)c(O)c2)n1` [Compound of Example 40, 4-[2-(3-Pentyl-[1,2,4]oxadiazol-5-yl)-vinyl]-benzene-1,2-diol]: the GI50 in assay [1] and in assay [3] was under 10 µM throughout. Further, the pIC50 in assay [2] (Homo sapiens) was over 5.00.
Turning to `CCCCCCc1noc(C=Cc2ccc(O)c(O)c2)n1` [Compound of Example 43], the GI50 in assay [1] and in assay [3] was under 10 µM in each case. Further, the pIC50 in assay [2] is over 5.00.
With `Oc1ccc(C=Cc2nc(CC3CCCCC3)no2)cc1O` [Compound of Example 46, 4-[2-(3-Cyclohexylmethyl-[1,2,4]oxadiazol-5-yl)-vinyl]-benzene-1,2-diol], the GI50 in assay [1] and in assay [3] was under 10 µM each time. Moreover, in assay [2] (Homo sapiens), the pIC50 was over 5.00.
Regarding `CCCCCCCCc1noc(C=Cc2ccc(O)c(O)c2)n1` [Compound of Example 49, 4-[2-(3-Octyl-[1,2,4]oxadiazol-5-yl)-vinyl]-benzene-1,2-diol], the GI50 in assay [1] and in assay [3] was under 10 µM each time. In addition, in assay [2] (Homo sapiens), the pIC50 was over 5.00.
As to `CCCCCCCc1noc(C=Cc2ccc(O)c(O)c2)n1` [Compound of Example 52, 4-[2-(3-Heptyl-[1,2,4]oxadiazol-5-yl)-vinyl]-benzene-1,2-diol], the GI50 in assay [1] and in assay [3] was under 10 µM each time. Moreover, the pIC50 in assay [2] (Homo sapiens) was over 5.00.
As to `Oc1ccc(C=Cc2nc(-c3cccnc3)no2)cc1O` [Compound of Example 55, 4-[2-(3-Pyridin-3-yl-[1,2,4]oxadiazol-5-yl)-vinyl]-benzene-1,2-diol], the GI50 in assay [1] and in assay [3] was under 10 µM each time. In addition, the pIC50 in assay [2] (Homo sapiens) was 4.00 to 4.96.
Take `Oc1ccc(C=Cc2nc(C3CCCCCC3)no2)cc1O` [Compound of Example 58, 4-[2-(3-Cycloheptyl-[1,2,4]oxadiazol-5-yl)-vinyl]-benzene-1,2-diol]: the GI50 in assay [1] and in assay [3] was under 10 µM in each case. In addition, the pIC50 in assay [2] (Homo sapiens) was 4.00 to 4.96.
Consider `Oc1ccc(C=Cc2nc(C3CCCCC3)no2)cc1O` [Compound of Example 61, 4-[2-(3-Cyclohexyl-[1,2,4]oxadiazol-5-yl)-vinyl]-benzene-1,2-diol], for which the GI50 in assay [1] and in assay [3] was under 10 µM in each case. Moreover, the pIC50 in assay [2] (Homo sapiens) is 4.00 to 4.96.
As for `Cc1ccc(NC(=O)c2ccc(CN3CCN(C)CC3)cc2)cc1Nc1nccc(-c2cccnc2)n1` [imatinib mesylate, Imatinib mesylate, reference compound], the “% Apoptosis by Flow Cytometry Analysis” value was 51% in assay [4] (3X IC50, 96 h time point); 40.3% in assay [4] (5X IC50, 48 h time point); 31% in assay [4] (5X IC50, 96 h time point); 61% in assay [5] (3X IC50, 96 h time point); 96.7% in assay [5] (5X IC50, 48 h time point); 98.4% in assay [5] (5X IC50, 96 h time point). Further, the “% Apoptosis by Flow Cytometry Analysis” value in assay [6] (3X IC50, 96 h time point) was found to be 85.2%; in assay [6] (5X IC50, 48 h time point) it was 78%; in assay [6] (5X IC50, 96 h time point), 98.2%; in assay [7] (3X IC50, 96 h time point), 26.6%; in assay [7] (5X IC50, 48 h time point) it was 4.3%; in assay [7] (5X IC50, 96 h time point), 25.2%. For the same compound, the “% Apoptosis by Flow Cytometry Analysis” value is recorded as 95% in assay [8] (3X IC50, 96 h time point); 3.9% in assay [8] (5X IC50, 48 h time point); 92.6% in assay [8] (5X IC50, 96 h time point).
